Experimental data taken from patent US12690589B2, “Herbicidal compositions comprising pyroxasulfone” (BASF SE, priority 2024, dated 2026).

How the values were obtained:
Test in all cases: Post-emergence application in field trials, herbicidal activity (damage scale 0 to 100%)
Format in all cases: in vivo
[1] = test system: Setaria verticillata (SETVE)
In short: (§1)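 Field sites with natural or seeded weeds were sprayed post-emergence via flat fan nozzles in 200 l/ha water plus 0.25 v/v % MSO adjuvant, solo or mixed with pyroxasulfone and other partners. Damage was scored 0–100% versus untreated plants at indicated DAT. Colby expected values were used to judge synergy.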

[2] = test system: Lolium multiflorum (LOLMU)
In short: as §1

[3] = test system: Digitaria sanguinalis (DIGSA)
In short: as §1

SMILES: CCOC(=O)COc1ccccc1Oc1nc(-n2c(=O)cc(C(F)(F)F)n(C)c2=O)c(F)cc1Cl [A-1, ethyl 2-[2-[[3-chloro-5-fluoro-6-[3-methyl-2,6-dioxo-4-(trifluoromethyl)pyrimidin-1-yl]-2-pyridyl]oxy]phenoxy]acetate]
- % Herbicidal activity ([1]; 42 DAT, stage 21-23, height 8-16 cm, g ai/ha A-1 12.5, B 70, C-12 252): 50%
- % Herbicidal activity ([1]; 42 DAT, stage 21-23, height 8-16 cm, g ai/ha A-1 18, B 70): 70%
- % Herbicidal activity ([1]; 42 DAT, stage 21-23, height 8-16 cm, g ai/ha A-1 18, B 90, C-12 252): 50%
- % Herbicidal activity ([1]; SETVE, growth stage 21-23, height 8-16 cm, A-1 12.5 g ai/ha, 7 DAT, Table 4.1): 75%
- % Herbicidal activity ([1]; SETVE, growth stage 21-23, height 8-16 cm, A-1 12.5 g ai/ha, 21 DAT, Table 4.3): 70%
- % Herbicidal activity ([1]; SETVE, growth stage 21-23, height 8-16 cm, A-1 18 g ai/ha, 7 DAT, Table 4.1): 75%
- % Herbicidal activity ([1]; SETVE, growth stage 21-23, height 8-16 cm, A-1 18 g ai/ha, 21 DAT, Table 4.3): 75%
- % Herbicidal activity ([1]; Table 8.1, 7 DAT, stage 21-23, height 8-16 cm, g ai/ha A-1 18, B 70, C-12 1066): 75%
- % Herbicidal activity ([1]; Table 8.2, 21 DAT, stage 21-23, height 8-16 cm, g ai/ha A-1 12.5, B 70, C-12 1066): 70%
- % Herbicidal activity ([1]; Table 8.4, 42 DAT, stage 21-23, height 8-16 cm, g ai/ha A-1 12.5, B 70, C-12 1066): 60%
- % Herbicidal activity ([2]; 7 DAT, stage 22-25, height 20-25 cm, g ai/ha A-1 12.5, B 70, C-12 252): 60%
- % Herbicidal activity ([2]; 7 DAT, stage 22-25, height 20-25 cm, g ai/ha A-1 18, B 70, C-12 252): 60%
- % Herbicidal activity ([2]; 7 DAT, stage 22-25, height 20-25 cm, g ai/ha A-1 18, B 90, C-12 252): 60%
- % Herbicidal activity ([2]; 21 DAT, stage 22-25, height 20-25 cm, g ai/ha A-1 12.5, B 70, C-12 252): 40%
- % Herbicidal activity ([2]; 21 DAT, stage 22-25, height 20-25 cm, g ai/ha A-1 18, B 70, C-12 252): 40%
- % Herbicidal activity ([2]; 21 DAT, stage 22-25, height 20-25 cm, g ai/ha A-1 18, B 90, C-12 252): 40%
- % Herbicidal activity ([2]; 28 DAT, stage 22-25, height 20-25 cm, g ai/ha A-1 12.5, B 70, C-12 252): 40%
- % Herbicidal activity ([2]; 28 DAT, stage 22-25, height 20-25 cm, g ai/ha A-1 18, B 70, C-12 252): 40%
- % Herbicidal activity ([2]; 28 DAT, stage 22-25, height 20-25 cm, g ai/ha A-1 18, B 90, C-12 252): 40%
- % Herbicidal activity ([2]; LOLMU, growth stage 22-25, height 20-25 cm, A-1 18 g ai/ha, 7 DAT, Table 4.2): 60%
- % Herbicidal activity ([2]; LOLMU, growth stage 22-25, height 20-25 cm, A-1 18 g ai/ha, 21 DAT, Table 4.4): 60%
- % Herbicidal activity ([3]; 7 DAT, stage 22, height 10-15 cm, g ai/ha A-1 12.5, B 70, C-4 12.5): 80%
- % Herbicidal activity ([3]; 7 DAT, stage 22, height 10-15 cm, g ai/ha A-1 18, B 70, C-4 12.5): 85%
- % Herbicidal activity ([3]; 7 DAT, stage 22, height 10-15 cm, g ai/ha A-1 18, B 70, C-8 840): 80%
- % Herbicidal activity ([3]; 7 DAT, stage 22, height 10-15 cm, g ai/ha A-1 18, B 70, C-12 252): 85%
- % Herbicidal activity ([3]; 7 DAT, stage 22, height 10-15 cm, g ai/ha A-1 18, B 90, C-4 12.5): 85%
- % Herbicidal activity ([3]; 7 DAT, stage 22, height 10-15 cm, g ai/ha A-1 18, B 90, C-8 840): 80%
- % Herbicidal activity ([3]; 7 DAT, stage 22, height 10-15 cm, g ai/ha A-1 18, B 90, C-12 252): 85%
- % Herbicidal activity ([3]; 21 DAT, stage 22, height 10-15 cm, g ai/ha A-1 12.5, B 70, C-4 12.5): 70%
- % Herbicidal activity ([3]; 21 DAT, stage 22, height 10-15 cm, g ai/ha A-1 18, B 70, C-4 12.5): 80%
- % Herbicidal activity ([3]; 21 DAT, stage 22, height 10-15 cm, g ai/ha A-1 18, B 70, C-12 252): 85%
- % Herbicidal activity ([3]; 21 DAT, stage 22, height 10-15 cm, g ai/ha A-1 18, B 90, C-4 12.5): 80%
- % Herbicidal activity ([3]; 21 DAT, stage 22, height 10-15 cm, g ai/ha A-1 18, B 90, C-12 252): 85%
- % Herbicidal activity ([3]; 42 DAT, stage 22, height 10-15 cm, g ai/ha A-1 12.5, B 70): 65%
- % Herbicidal activity ([3]; 42 DAT, stage 22, height 10-15 cm, g ai/ha A-1 12.5, B 70, C-4 12.5): 60%
- % Herbicidal activity ([3]; 42 DAT, stage 22, height 10-15 cm, g ai/ha A-1 18, B 70): 80%
- % Herbicidal activity ([3]; 42 DAT, stage 22, height 10-15 cm, g ai/ha A-1 18, B 70, C-4 12.5): 70%
- % Herbicidal activity ([3]; 42 DAT, stage 22, height 10-15 cm, g ai/ha A-1 18, B 70, C-12 252): 70%
- % Herbicidal activity ([3]; 42 DAT, stage 22, height 10-15 cm, g ai/ha A-1 18, B 90): 80%
- % Herbicidal activity ([3]; 42 DAT, stage 22, height 10-15 cm, g ai/ha A-1 18, B 90, C-4 12.5): 70%
- % Herbicidal activity ([3]; 42 DAT, stage 22, height 10-15 cm, g ai/ha A-1 18, B 90, C-12 252): 70%
- % Herbicidal activity ([3]; DIGSA, growth stage 22, height 10-15 cm, A-1 12.5 g ai/ha, 7 DAT, Table 4.1): 80%
- % Herbicidal activity ([3]; DIGSA, growth stage 22, height 10-15 cm, A-1 12.5 g ai/ha, 21 DAT, Table 4.3): 70%
- % Herbicidal activity ([3]; DIGSA, growth stage 22, height 10-15 cm, A-1 18 g ai/ha, 7 DAT, Table 4.1): 80%
- % Herbicidal activity ([3]; DIGSA, growth stage 22, height 10-15 cm, A-1 18 g ai/ha, 21 DAT, Table 4.3): 80%
- % Herbicidal activity ([3]; Table 8.1, 7 DAT, stage 22, height 10-15 cm, g ai/ha A-1 18, B 70, C-12 1066): 80%
- % Herbicidal activity ([3]; Table 8.2, 21 DAT, stage 22, height 10-15 cm, g ai/ha A-1 18, B 70, C-12 1066): 80%
- % Herbicidal activity ([3]; Table 8.4, 42 DAT, stage 22, height 10-15 cm, g ai/ha A-1 18, B 70, C-12 1066): 60%
